Source: patent publication US20230129258A1, “HETEROTANDEM BICYCLIC PEPTIDE COMPLEXES” (BicycleTx Limited, priority 2019, published 2023)

Tests used:
CD137 [1] = target: T1, CD137 (Homo sapiens, UniProt Q07011); assay: CD137 reporter assay (Promega, Jurkat cells) in co-culture with PD-L1-expressing RKO cells; format: cell-based; parameters: host or cells: Jurkat reporter cells; conditions: read-out: Fold Induction over background
Procedure: Culture medium, referred to as R1 media, is prepared by adding 1% FBS to RPMI-1640 (component of Promega kit CS196005). Serial dilutions of test articles in R1 are prepared in a sterile 96 well-plate. Add 25 μL per well of test articles or R1 (as a background control) to designated wells in a white cell culture plate. Tumor cells* are harvested and resuspended at a concentration of 400,000 cells/mL in R1 media. Twenty five (25) μL/well of tumor cells are added to the white cell culture plate. Jurkat cells (Promega kit CS196005, 0.5 mL) are thawed in the water bath and then added to 5 ml pre-warmed R1 media. Twenty five (25) μL/well of Jurkat cells are then added to the white cell culture plate. Incubate the cells and test articles for 6 h at 37° C., 5% CO2. At the end of 6 h, add 75 μL/well Bio-Glo™ reagent (Promega) and incubate for 10 min before reading luminescence in a plate reader (Clariostar, BMG). The fold change relative to cells alone (Jurkat cells+Cell line used in co-culture) is calculated and plotted in GraphPad Prism as log(agonist) vs response to determine EC50 (nM) and Fold Induction over background (Max).
The tumor cell types used in co-culture for EphA2 are A549, PC3 and HT29. The tumor cell type used in co-culture for PD-L1 is RKO.

OX40 = target: T2, OX40 (Homo sapiens, UniProt P43489); assay: Promega OX40 cell-activity assay (NF-kB luciferase, Jurkat) in co-culture with 4T1-D02 tumor cells; format: cell-based; conditions: co-culture with Nectin-4 positive 4T1-D02 cells
T2 construct: host or cells: OX40 Jurkat cells
T2 sequence (P43489 29-277): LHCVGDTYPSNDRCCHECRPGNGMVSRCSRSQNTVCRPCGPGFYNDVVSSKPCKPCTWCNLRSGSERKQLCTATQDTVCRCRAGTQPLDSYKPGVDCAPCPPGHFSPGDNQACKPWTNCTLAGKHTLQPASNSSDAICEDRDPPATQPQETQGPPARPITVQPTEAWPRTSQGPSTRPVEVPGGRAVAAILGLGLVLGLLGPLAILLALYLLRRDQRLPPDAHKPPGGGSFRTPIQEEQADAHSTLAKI
Procedure: Promega have developed an OX40 cell-activity assay that uses NF-κB luciferase luminescence as a read-out of OX40 activation in Jurkat cells (Promega CS197704). On the day of the experiment, prepare medium by thawing FBS and adding 5% FBS to RPMI-1640. Thaw OX40 Jurkat cells in the water-bath and then add 500 μl cells to 11.5 ml pre-warmed 5% FBS RPMI-1640 medium. Add 55 μl cells/well to white cell culture plates. Harvest tumor cells from culture. 4T1 is a Nectin-4 negative murine mammary gland epithelial cancer cell and it was genetically modified to express murine Nectin-4 on the cell surface (4T1 Nectin-4 positive; clone 411-D02). Tumor cells were cultured to 80% confluency in vitro in RPM11640 medium supplemented with 10% heat-inactivated FBS, 1× Penicillin/Streptomycin, 1× L-Glutamine, 20 mM HEPES and 1×NEAA (RPMI working medium). Tumor cells were trypsinized and washed two times at 1500 rpm for 5 minutes in RPM11640 working medium prewarmed to 37° C. Count cells and resuspend at 2,000,000 cells/mL in R5 media (for 10,000 cells/well). Add 5 μL of tumor cells per well. […]
Co-incubate cells together with agonists for 6 hours at 37° C., 5% CO2. […] Read luciferase signal on CLAIROStar plate-reader using the MARS program and normalize the fold induction relative to background (medium alone). […]

[2] = system: TNF family receptors OX40 and CD40; assay: CD137 paralogue screening by SPR; format: binding; conditions: streptavidin captured peptide, soluble receptors
Procedure: CD137 Paralogue screening: Binding of streptavidin captured BCY13582 (biotinylated-BCY11863) was assessed using SPR against soluble TNF family receptors OX40 and CD40.

CD137 [3] = target: T1, CD137; assay: CD137 reporter assay (Promega CD137 luciferase reporter, Jurkat cells) in co-culture with Nectin-4-expressing tumor cells; format: cell-based; parameters: host or cells: Jurkat reporter cells; conditions: for EC50: Arithmetic mean EC50 (nM)
[4] = system: 5484 full-length human plasma membrane proteins and secreted proteins expressed in HEK293 cells; assay: Retrogenix cell microarray off-target screening; format: binding; conditions: 1 μM test peptide
Procedure: Retrogenix microarray screening: Retrogenix's cell microarray technology was used to screen for specific off-target binding interactions of a biotinylated BCY11863 known as BCY13582.
Under these conditions, the test peptide was screened for binding against human HEK293 cells, individually expressing 5484 full-length human plasma membrane proteins and secreted proteins.
Each primary hit was re-expressed, along with two control receptors (TGFBR2 and EGFR), and re-tested with 1 μM BCY13582 test peptide, 1 μM BCY13582 test peptide in the presence of 100 μM BCY11863, and other positive and negative control treatments (FIG. 4). […] These were untethered and tethered forms of Nectin-4, and CD137—the primary targets.

T1 sequence (Q07011 24-255): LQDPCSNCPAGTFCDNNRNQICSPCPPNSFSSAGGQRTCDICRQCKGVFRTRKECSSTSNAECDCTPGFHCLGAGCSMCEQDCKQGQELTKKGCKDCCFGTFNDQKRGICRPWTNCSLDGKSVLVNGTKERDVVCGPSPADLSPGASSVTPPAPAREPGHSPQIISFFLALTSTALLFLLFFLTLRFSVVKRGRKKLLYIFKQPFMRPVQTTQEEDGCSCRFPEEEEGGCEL

## CCCC[C@@H]1NC(=O)[C@H](Cc2ccc(O)cc2)NC(=O)[C@@H]2CCCN2C(=O)[C@H](CC(=O)O)NC(=O)[C@H](C)NC(=O)[C@H](Cc2ccccc2)NC(=O)[C@@H]2CSCCC(=O)N3CN(CN(C3)C(=O)CCSC[C@@H](C(=O)N[C@@H](C)C(N)=O)NC1=O)C(=O)CCSC[C@H](NC(C)=O)C(=O)N[C@@H](CC(C)(C)C)C(=O)N1CCC[C@H]1C(=O)N[C@@H](CCC(=O)O)C(=O)N[C@H](CCCCNC(=O)CCc1cn(CCOCCOCCOCCOCCOCCOCCOCCOCCOCCOCCNC(=O)CCOCCN(CCOCCC(=O)NCCOCCOCCOCCOCCOCCOCCOCCOCCOCCOCCn3cc(CCC(=O)NCCCC[C@@H]4NC(=O)[C@H](CCC(N)=O)NC(=O)[C@@H]5CSCCC(=O)N6CN(CN(C6)C(=O)CCSC[C@@H](C(=O)N6CCC[C@H]6C(=O)N[C@@H](CO)C(=O)N[C@@H](Cc6c[nH]cn6)C(N)=O)NC(=O)[C@H](CC(C)C)NC(=O)[C@H](Cc6c[nH]cn6)NC(=O)[C@H](CC(C)C)NC4=O)C(=O)CCSC[C@H](NC(=O)[C@H](CCCCN)NC(=O)[C@H](CC(=O)O)NC(=O)[C@H](CO)NC(C)=O)C(=O)N[C@@H](CO)C(=O)N[C@@H](C)C(=O)NCC(=O)N[C@@H](Cc4c[nH]c6ccccc46)C(=O)N[C@@H](CC(C)C)C(=O)N[C@@H]([C@@H](C)O)C(=O)N[C@@H](CCSC)C(=O)N5)nn3)CCOCCC(=O)NCCOCCOCCOCCOCCOCCOCCOCCOCCOCCOCCn3cc(CCC(=O)NCCCC[C@H]4NC(=O)[C@H](CCC(=O)O)NC(=O)[C@@H]5CCCN5C(=O)[C@H](CC(C)(C)C)NC(=O)[C@@H](NC(C)=O)CSCCC(=O)N5CN6CN(C5)C(=O)CCSC[C@H](NC(=O)[C@H](Cc5ccc(O)cc5)NC(=O)[C@@H]5CCCN5C4=O)C(=O)N[C@@H](Cc4ccccc4)C(=O)N[C@@H](C)C(=O)N[C@@H](CC(=O)O)C(=O)N4CCC[C@H]4C(=O)N[C@@H](Cc4ccc(O)cc4)C(=O)N[C@@H](CCCC)C(=O)N[C@H](C(=O)N[C@@H](C)C(N)=O)CSCCC6=O)nn3)nn1)C(=O)N1CCC[C@H]1C(=O)N[C@@H](Cc1ccc(O)cc1)C(=O)N2 [BCY11780]
CD137 [1]
  fold induction: 13

## CSCC[C@@H]1NC(=O)[C@@H]2CSCCC(=O)N3CN(CN(C3)C(=O)CCSC[C@H](NC(=O)CCOCCOCCOCCN(CCOCCOCCOCCn3cc(CCC(=O)NCCCC[C@H](NC(=O)[C@H](C)NC(=O)[C@@H]4CSCCC(=O)N5CN6CN(C5)C(=O)CCSC[C@H](NC(=O)[C@@H]5CCCN5C(=O)[C@H](CO)NC(=O)[C@H](Cc5ccc(O)cc5)NC(=O)[C@H](CC(C)C)NC(=O)[C@@H](NC(=O)[C@H](C)N)CSCCC6=O)C(=O)N[C@@H](Cc5c[nH]c6ccccc56)C(=O)N[C@@H](Cc5c[nH]cn5)C(=O)N5CCC[C@H]5C(=O)N[C@@H](CC(C)C)C(=O)N[C@@H](CC(N)=O)C(=O)N[C@@H](CC(=O)O)C(=O)N4)C(N)=O)nn3)CCOCCOCCOCCn3cc(CCC(=O)NCCCC[C@H](NC(=O)[C@H](C)NC(=O)[C@@H]4CSCCC(=O)N5CN6CN(C5)C(=O)CCSC[C@H](NC(=O)[C@@H]5CCCN5C(=O)[C@H](CO)NC(=O)[C@H](Cc5ccc(O)cc5)NC(=O)[C@H](CC(C)C)NC(=O)[C@@H](NC(=O)[C@H](C)N)CSCCC6=O)C(=O)N[C@@H](Cc5c[nH]c6ccccc56)C(=O)N[C@@H](Cc5c[nH]cn5)C(=O)N5CCC[C@H]5C(=O)N[C@@H](CC(C)C)C(=O)N[C@@H](CC(N)=O)C(=O)N[C@@H](CC(=O)O)C(=O)N4)C(N)=O)nn3)C(=O)N3CCC[C@H]3C(=O)N[C@@H](Cc3cccc4ccccc34)C(=O)N[C@H](CC(=O)O)C(=O)N2)C(=O)CCSC[C@@H](C(N)=O)NC(=O)[C@H](Cc2c[nH]c3ccccc23)NC(=O)[C@@H]2C[C@@H](O)CN2C(=O)[C@@H]2CCCN2C(=O)[C@H]([C@@H](C)O)NC(=O)[C@H](CO)NC(=O)[C@H](Cc2c[nH]c3ccccc23)NC(=O)[C@H](CC(=O)O)NC(=O)[C@H](CCCCNC(=N)N)NC1=O [BCY12967]
OX40
  OX40 agonism: potent OX40 agonism

## CCCC[C@@H]1NC(=O)[C@H](Cc2ccc(O)cc2)NC(=O)[C@@H]2CCCN2C(=O)[C@H](CC(=O)O)NC(=O)[C@H](C)NC(=O)[C@H](Cc2ccccc2)NC(=O)[C@@H]2CSCCC(=O)N3CN(CN(C3)C(=O)CCSC[C@@H](C(=O)N[C@@H](C)C(N)=O)NC1=O)C(=O)CCSC[C@H](NC(C)=O)C(=O)N[C@@H](CC(C)(C)C)C(=O)N1CCC[C@H]1C(=O)N[C@@H](CCC(=O)O)C(=O)N[C@H](CCCCNC(=O)CCc1cn(CCOCCOCCOCCN(CCOCCOCCOCCC(=O)N[C@H]3CSCCC(=O)N4CN5CN(C4)C(=O)CCSC[C@H](NC(=O)[C@@H](CC(=O)O)NC(=O)[C@H](Cc4cccc6ccccc46)NC(=O)[C@@H]4CCCN4C3=O)C(=O)N[C@@H](CCSC)C(=O)N[C@@H](CCCCNC(=N)N)C(=O)N[C@@H](CC(=O)O)C(=O)N[C@@H](Cc3c[nH]c4ccccc34)C(=O)N[C@@H](CO)C(=O)N[C@@H]([C@@H](C)O)C(=O)N3CCC[C@H]3C(=O)N3C[C@H](O)C[C@H]3C(=O)N[C@@H](Cc3c[nH]c4ccccc34)C(=O)N[C@H](C(N)=O)CSCCC5=O)CCOCCOCCOCCn3cc(CCC(=O)NCCCC[C@H]4NC(=O)[C@H](CCC(=O)O)NC(=O)[C@@H]5CCCN5C(=O)[C@H](CC(C)(C)C)NC(=O)[C@@H](NC(C)=O)CSCCC(=O)N5CN6CN(C5)C(=O)CCSC[C@H](NC(=O)[C@H](Cc5ccc(O)cc5)NC(=O)[C@@H]5CCCN5C4=O)C(=O)N[C@@H](Cc4ccccc4)C(=O)N[C@@H](C)C(=O)N[C@@H](CC(=O)O)C(=O)N4CCC[C@H]4C(=O)N[C@@H](Cc4ccc(O)cc4)C(=O)N[C@@H](CCCC)C(=O)N[C@H](C(=O)N[C@@H](CCCCNC(=O)CCOCCOCCOCCOCCOCCOCCOCCOCCOCCOCCOCCOCCNC(=O)CCCC[C@@H]4SC[C@@H]5NC(=O)N[C@@H]54)C(N)=O)CSCCC6=O)nn3)nn1)C(=O)N1CCC[C@H]1C(=O)N[C@@H](Cc1ccc(O)cc1)C(=O)N2 [BCY13582]
[2]
  binding to OX40 and CD40: concentration up to which no binding was seen: > 100 nM
CD137 [3]; co-culture with HT1376 (human), Table 1B
  EC50: 0.58 ± 0.27 nM
CD137 [3]; co-culture with MDA-MB-468 (human)
  EC50: 0.34 ± 0.02 nM
CD137 [3]; co-culture with HT1376, Table 2A
  Emax: 57 fold induction over background
[4]
  specific off-target interactions: No specific off-target interactions
